In US20130035326A1 (AMBIT BIOSCIENCES CORPORATION, priority 2009, published 2013):

Tests used:
MV4-11 cells = experiment: MV4-11 cell proliferation assay (Alamar Blue); format: cell-based; conditions: 3 days incubation
Outline: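 Flt3-ITD MV4-11 cells were serum-starved overnight in Iscove's with 0.5% FBS, then given compound at 9 half-log concentrations (0.5% DMSO) for 3 days at 37° C. Alamar Blue reduction was read after 3 h by fluorescence (560/590 nm). IC50 is the mean of duplicates versus negative control.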

[1] = target: kinase panel containing either 359 or 386 distinct kinases; experiment: Selectivity score S10 from competition binding against a panel of kinases; conditions: compounds at 10 μM; for Kinase specificty: S(10)-386 panel: panel of 386 distinct kinases; for Kinase specificty: S(10)-359 panel: panel of 359 distinct kinases
Protocol: Competition binding assays used herein were developed, validated and performed as described in Fabian et al., Nature Biotechnology 2005, 23,329-336. Kinases were produced as fusions to T7 phage (See, Fabian et al. or WO04/015142) or alternatively, the kinases were expressed in HEK-293 cells and subsequently tagged with DNA for PCR detection (See, WO08/005,310). For the binding assays, streptavidin-coated magnetic beads were treated with biotinylated affinity ligands for 30 min at room temperature to generate affinity resins. The liganded beads were blocked with excess biotin and washed with blocking buffer (SeaBlock (Pierce), 1% BSA, 0.05% Tween 20, 1 mM DTT) to remove unbound ligand and to reduce non-specific binding. Binding reactions were assembled by combining kinase, liganded affinity beads, and test compounds in 1× binding buffer (20% SeaBlock, 0.17×PBS, 0.05% Tween 20, 6 mM DTT). Test compounds were prepared as 100× stocks in DMSO and diluted into the aqueous environment. Kds were determined using an eleven point threefold serial dilutions. DMSO or control compounds were was added to control assays lacking a test compound. Primary screen assays were performed in polypropylene 384-well plates in a final volume of 20-40 μL, while Kd determinations were performed in polystyrene 96-well plates in a final volume of 135 μL. The assay plates were incubated at room temperature with shaking for 1 hour to allow the binding reactions to reach equilibrium, and the affinity beads were washed extensively with wash buffer (1×PBS, 0.05% Tween 20) to remove unbound protein. The beads were then resuspended in elution buffer (1×PBS, 0.05% Tween 20, 0.5 μM non-biotinylated affinity ligand) and incubated at room temperature with shaking for 30 min. The kinase concentration in the eluates was measured by quantitative PCR.
A selectivity score (S10) is a quantitative measure of selectivity of a compound against a panel of kinases. An S10 was calculated for a compound by dividing the number of kinases found to have a percent of control (DMSO) less than 10 by the total number of distinct kinases tested (excluding mutant variants). Percent of control (POC) is calculated by subtracting the signal of the control compound (POC=0) from the signal of the test compound and dividing the outcome by the signal of DMSO (POC=100) minus the signal of the control compound. For the compounds disclosed herein, S10 scores were obtained by testing the compounds at 10 μM concentration in a kinase panel containing either 359 or 386 distinct kinases.

CSF-1R kinase = target: T1, CSF-1R kinase (Homo sapiens, UniProt P07333); experiment: Competition binding assay, CSF-1R Kd
T1 construct: made in house; host or cells: T7 phage display or HEK-293 cells
T1 sequence (P07333 20-972): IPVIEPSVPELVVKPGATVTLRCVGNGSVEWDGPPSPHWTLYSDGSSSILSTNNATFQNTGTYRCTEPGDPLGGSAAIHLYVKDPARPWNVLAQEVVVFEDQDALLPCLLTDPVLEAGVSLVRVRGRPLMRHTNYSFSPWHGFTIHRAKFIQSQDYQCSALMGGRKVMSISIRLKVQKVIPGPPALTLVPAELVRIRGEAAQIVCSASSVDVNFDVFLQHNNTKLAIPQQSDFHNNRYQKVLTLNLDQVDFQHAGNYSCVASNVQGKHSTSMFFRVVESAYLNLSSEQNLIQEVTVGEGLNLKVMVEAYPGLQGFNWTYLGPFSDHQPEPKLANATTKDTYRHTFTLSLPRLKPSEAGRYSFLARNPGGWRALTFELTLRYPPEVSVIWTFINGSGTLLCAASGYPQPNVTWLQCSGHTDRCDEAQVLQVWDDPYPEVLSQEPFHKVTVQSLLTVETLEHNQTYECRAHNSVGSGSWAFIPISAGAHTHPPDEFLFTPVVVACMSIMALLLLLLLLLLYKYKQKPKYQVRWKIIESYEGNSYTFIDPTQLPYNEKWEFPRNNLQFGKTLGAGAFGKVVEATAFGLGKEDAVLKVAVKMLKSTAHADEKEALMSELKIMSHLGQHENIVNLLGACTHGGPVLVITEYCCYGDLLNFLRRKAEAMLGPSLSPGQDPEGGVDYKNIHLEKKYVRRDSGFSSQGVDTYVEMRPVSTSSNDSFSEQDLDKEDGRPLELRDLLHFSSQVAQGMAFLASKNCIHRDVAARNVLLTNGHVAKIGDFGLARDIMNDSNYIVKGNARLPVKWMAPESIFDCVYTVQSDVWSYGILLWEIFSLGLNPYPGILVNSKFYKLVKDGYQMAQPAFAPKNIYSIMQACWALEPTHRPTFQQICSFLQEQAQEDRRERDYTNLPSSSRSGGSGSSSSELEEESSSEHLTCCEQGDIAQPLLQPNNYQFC
Outline: (§1)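 In this bead-based competition format, test compound (eleven concentrations, threefold steps) was incubated with kinase and immobilized affinity ligand for 1 hour at room temperature. Kinase retained on beads was released with non-biotinylated ligand and measured by quantitative PCR to give Kd.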

KIT kinase = target: T2, KIT kinase (Homo sapiens, UniProt P10721); experiment: Competition binding assay, KIT Kd
T2 construct: made in house; host or cells: T7 phage display or HEK-293 cells
T2 sequence (P10721 26-976): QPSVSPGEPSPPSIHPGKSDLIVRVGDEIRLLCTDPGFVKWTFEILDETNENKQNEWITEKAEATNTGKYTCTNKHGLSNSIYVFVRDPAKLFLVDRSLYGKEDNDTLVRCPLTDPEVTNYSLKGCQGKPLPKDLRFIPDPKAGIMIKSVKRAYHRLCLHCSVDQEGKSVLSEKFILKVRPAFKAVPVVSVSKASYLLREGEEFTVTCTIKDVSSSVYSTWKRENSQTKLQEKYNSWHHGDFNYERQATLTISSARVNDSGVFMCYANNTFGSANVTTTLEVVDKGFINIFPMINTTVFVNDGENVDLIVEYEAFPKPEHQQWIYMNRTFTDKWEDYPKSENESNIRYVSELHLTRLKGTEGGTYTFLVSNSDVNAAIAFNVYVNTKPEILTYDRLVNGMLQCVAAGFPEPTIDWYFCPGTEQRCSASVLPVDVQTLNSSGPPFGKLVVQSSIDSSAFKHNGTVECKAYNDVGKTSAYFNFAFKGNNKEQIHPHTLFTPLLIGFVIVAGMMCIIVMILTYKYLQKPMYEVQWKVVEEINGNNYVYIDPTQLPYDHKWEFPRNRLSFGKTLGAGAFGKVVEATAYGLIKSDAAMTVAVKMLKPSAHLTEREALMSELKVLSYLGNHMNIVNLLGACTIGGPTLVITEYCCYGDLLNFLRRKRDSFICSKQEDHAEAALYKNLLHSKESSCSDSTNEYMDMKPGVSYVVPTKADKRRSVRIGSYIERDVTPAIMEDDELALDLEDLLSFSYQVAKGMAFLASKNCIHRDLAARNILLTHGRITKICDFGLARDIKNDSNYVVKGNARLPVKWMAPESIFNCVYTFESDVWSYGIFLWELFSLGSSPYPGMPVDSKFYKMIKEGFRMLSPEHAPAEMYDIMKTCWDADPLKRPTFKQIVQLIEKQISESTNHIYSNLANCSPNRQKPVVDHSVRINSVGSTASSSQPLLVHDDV
Outline: as §1

FLT3 kinase = target: T3, FLT3 kinase (Homo sapiens, UniProt P36888); experiment: Competition binding assay, FLT3 Kd
T3 construct: made in house; host or cells: T7 phage display or HEK-293 cells
T3 sequence (P36888 27-993): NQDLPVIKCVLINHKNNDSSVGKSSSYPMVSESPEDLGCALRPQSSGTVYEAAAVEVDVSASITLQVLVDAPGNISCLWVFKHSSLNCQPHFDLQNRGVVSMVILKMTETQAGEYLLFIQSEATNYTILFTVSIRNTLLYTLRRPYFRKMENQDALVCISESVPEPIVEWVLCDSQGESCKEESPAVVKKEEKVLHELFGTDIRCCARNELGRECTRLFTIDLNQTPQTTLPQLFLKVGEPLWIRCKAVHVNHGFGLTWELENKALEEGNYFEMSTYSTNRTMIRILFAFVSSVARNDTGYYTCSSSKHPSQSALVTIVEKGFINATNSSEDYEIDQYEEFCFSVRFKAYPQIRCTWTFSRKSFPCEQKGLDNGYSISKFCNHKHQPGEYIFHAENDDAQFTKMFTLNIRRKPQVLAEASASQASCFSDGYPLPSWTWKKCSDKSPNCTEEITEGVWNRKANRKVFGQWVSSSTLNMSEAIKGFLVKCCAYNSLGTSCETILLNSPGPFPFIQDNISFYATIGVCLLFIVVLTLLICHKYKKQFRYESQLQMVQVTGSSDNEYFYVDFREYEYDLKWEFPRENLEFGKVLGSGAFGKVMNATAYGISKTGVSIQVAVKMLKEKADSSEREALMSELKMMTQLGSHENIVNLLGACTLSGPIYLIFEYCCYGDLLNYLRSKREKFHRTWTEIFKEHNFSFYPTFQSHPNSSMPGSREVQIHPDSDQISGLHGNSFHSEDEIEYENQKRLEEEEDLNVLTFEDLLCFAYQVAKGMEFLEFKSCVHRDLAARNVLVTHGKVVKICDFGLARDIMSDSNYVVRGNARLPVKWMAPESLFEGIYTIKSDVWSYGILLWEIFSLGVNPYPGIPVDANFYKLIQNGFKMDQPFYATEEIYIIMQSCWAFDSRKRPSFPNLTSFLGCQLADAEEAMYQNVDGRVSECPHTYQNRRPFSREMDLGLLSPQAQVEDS
Outline: as §1

Row | Compound | IC50 (MV4-11 cells; Homo sapiens, MV4-11, 72 h) [µM] | Kinase specificty: S(10)-386 panel [1] | Kd (CSF-1R kinase) [µM] | Kd (KIT kinase) [µM] | Kd (FLT3 kinase) [µM] | Kinase specificty: S(10)-359 panel [1] | IC50 (MV4-11 cells) [µM]
1 | Cc1nc(N)ccc1-c1ccc(NC(=O)Nc2cc(C(C)(C)C)on2)nc1 [Example 25, 1-(6′-amino-2′-methyl-3,3′-bipyridin-6-yl)-3-(5-tert-butylisoxazol-3-yl)urea] | 0.1 to 0.5 | – | 0.01 to 0.1 | ≤ 0.001 | ≤ 0.001 | A (A≦0.1) | –
2 | CC1(c2cc(NC(=O)Cc3ccc(-c4cnc(N)c(Cl)c4)cc3)no2)COC1.CS(=O)(=O)O [Example 128, 3-chloro-5-(4-(2-((5-(3-methyloxetan-3-yl)isoxazol-3-yl)amino)-2-oxoethyl)phenyl)pyridin-2-aminium methanesulfonate] | 0.001 to 0.01 | B (0.1<B≦0.2 nM) | ≤ 0.01 | 0.001 to 0.01 | ≤ 0.001 | – | –
3 | CC1(c2cc(NC(=O)Cc3ccc(-c4cnc(N)c(F)c4)cc3)no2)CC1.CS(=O)(=O)O [Example 138, 3-fluoro-5-(4-(2-(5-(1-methylcyclopropyl)isoxazol-3-ylamino)-2-oxoethyl)phenyl)pyridin-2-aminium methanesulfonate] | ≤ 0.001 | B (0.1<B≦0.2 nM) | ≤ 0.01 | ≤ 0.001 | ≤ 0.001 | – | –
4 | CS(=O)(=O)O.Nc1ccc(-c2ccc(CC(=O)Nc3cc(C4CCC4)no3)cc2)cn1 [Example 143, 5-(4-(2-((3-cyclobutylisoxazol-5-yl)amino)-2-oxoethyl)phenyl)pyridin-2-aminium methanesulfonate] | 0.001 to 0.01 | A (A≦0.1) | ≤ 0.01 | ≤ 0.001 | ≤ 0.001 | – | –
5 | CC(C)(C)c1cc(NC(=O)Nc2ccc(-c3cnc(CCCN4CCOCC4)nc3)cc2)no1 [Example 56, 1-(5-tert-butylisoxazol-3-yl)-3-(4-(2-(3-morpholinopropyl)pyrimidin-5-yl)phenyl)urea] | 0.01 to 0.1 | – | ≤ 0.01 | 0.001 to 0.01 | ≤ 0.001 | A (A≦0.1) | –
6 | COc1nc(N)ncc1-c1ccc(NC(=O)Nc2cc(C(C)(C)C)on2)cc1 [Example 50, 1-[4-(2-amino-4-methoxypyrimidin-5-yl)-phenyl]-3-(5-tert-butylisoxazol-3-yl)-urea] | ≤ 0.001 | – | ≤ 0.01 | ≤ 0.001 | 0.001 to 0.01 | B (0.1<B≦0.2 nM) | –
7 | CC(C)(C)c1cc(NC(=O)Nc2ccc(-c3cnc(N)c(CN4CCOCC4)c3)cc2)no1 [Example 13, 1-(4-(6-amino-5-(morpholinomethyl)pyridin-3-yl)phenyl)-3-(5-tert-butylisoxazol-3-yl)urea] | 0.01 to 0.1 | – | 0.01 to 0.1 | 0.001 to 0.01 | 0.001 to 0.01 | B (0.1<B≦0.2 nM) | –
8 | CC(C)(C)c1cc(NC(=O)Nc2ccc(-c3cnc4c(c3)OCCN4)cc2)no1 [Example 4, 1-(5-tert-butylisoxazol-3-yl)-3-(4-(3,4-dihydro-2H-pyrido[3,2-b][1,4]oxazin-7-yl)phenyl)urea] | 0.001 to 0.01 | – | ≤ 0.01 | 0.001 to 0.01 | 0.001 to 0.01 | B (0.1<B≦0.2 nM) | –
9 | CC(C)(C)c1cc(NC(=O)Nc2ccc(-c3cnc(NC4CCOCC4)nc3)cn2)no1 [Example 63, 1-(5-tert-butylisoxazol-3-yl)-3-(5-(2-(tetrahydro-2H-pyran-4-ylamino)pyrimidin-5-yl)pyridin-2-yl)urea] | 0.01 to 0.1 | – | ≤ 0.01 | ≤ 0.001 | ≤ 0.001 | B (0.1<B≦0.2 nM) | –
10 | 2-(4-(6-aminopyridin-3-yl)phenyl)-N-(3-tert-butyl-1H-pyrazol-1-yl)acetamide and 2-(4-(6-aminopyridin-3-yl)phenyl)-N-(5-tert-butyl-1H-pyrazol-1-yl)acetamide [Example 91] | – | A (A≦0.1) | 0.01 to 0.1 | 0.001 to 0.01 | ≤ 0.001 | – | 0.001 to 0.01
11 | CC(C)(C)c1cc(NC(=O)Nc2ccc(-c3cnc(NCCN4CCOCC4)nc3)cn2)no1 [Example 61, 1-(5-tert-butylisoxazol-3-yl)-3-{5-[2-(2-morpholin-4-yl-ethylamino)pyrimidin-5-yl]pyridin-2-yl}urea] | 0.01 to 0.1 | – | ≤ 0.01 | ≤ 0.001 | ≤ 0.001 | A (A≦0.1) | –

Further lines, with some results ahead:

Row | IC50 (MV4-11 cells; Homo sapiens, MV4-11, 72 h) [µM] | Kinase specificty: S(10)-386 panel [1] | Kd (CSF-1R kinase) [µM] | Kd (KIT kinase) [µM] | Kd (FLT3 kinase) [µM] | Kinase specificty: S(10)-359 panel [1] | Compound | IC50 (MV4-11 cells) [µM]
12 | 0.01 to 0.1 | A (A≦0.1) | ≤ 0.01 | 0.001 to 0.01 | ≤ 0.001 | – | CC1(c2cc(NC(=O)Cc3ccc(-c4ccc(N)nc4F)cc3)no2)COC1 [Example 140, 2-(4-(6-amino-2-fluoropyridin-3-yl)phenyl)-N-(5-(3-methyloxetan-3-yl)isoxazol-3-yl)acetamide] | –
13 | ≤ 0.001 | B (0.1<B≦0.2 nM) | ≤ 0.01 | 0.001 to 0.01 | ≤ 0.001 | – | CNc1ccc(-c2ccc(CC(=O)Nc3cc(C(C)(C)C)on3)cc2)cn1.CS(=O)(=O)O [Example 110, 5-(4-(2-(5-tert-butylisoxazol-3-ylamino)-2-oxoethyl)phenyl)-N-methylpyridin-2-aminium methanesulfonate] | –
14 | ≤ 0.001 | B (0.1<B≦0.2 nM) | ≤ 0.01 | 0.001 to 0.01 | ≤ 0.001 | – | COc1cc(-c2ccc(CC(=O)Nc3cc(C(C)(C)C)on3)cc2)cnc1N.CS(=O)(=O)O [Example 136, 5-(4-(2-(5-tert-butylisoxazol-3-ylamino)-2-oxoethyl)phenyl)-3-methoxypyridin-2-aminium methanesulfonate] | –
15 | 0.01 to 0.1 | – | ≤ 0.01 | 0.001 to 0.01 | ≤ 0.001 | A (A≦0.1) | Cc1nc(N)ccc1-c1ccc(NC(=O)Nc2cc(C(C)(C)C)on2)cc1 [Example 23, 1-(4-(6-amino-2-methylpyridin-3-yl)phenyl)-3-(5-tert-butylisoxazol-3-yl)urea] | –
16 | 0.01 to 0.1 | A (A≦0.1) | 0.01 to 0.1 | 0.001 to 0.01 | ≤ 0.001 | – | CC(C)(C)c1cc(NC(=O)Cc2ccc(-c3ccc(N)nc3C#N)cc2)no1 [Example 166] | –
